Holding throughout (assay type): cell-based, human
Test [1] deals with STING ubiquitination. Nature of the test: FLAG-ubiquitin immunoprecipitation of STING in 293T STING-HA / FLAG-ubiquitin cells. Particulars: 2′3′-cGAMP, 2 hours; 0.5 μM MLN7243; FIG. 12A. As to the method:
293T cells were transduced with pTRIP-hPGK-Blast-2A-STING-HA and pTRIP-hPGK-Hygro-2A-FLAG-Ubiquitin and selected with […] Blasticidin (Invivogen) and 320 μg/mL Hygromycin (Invivogen) for one week. 1 million cells/well were plated in a 6 well plate the day prior to the stimulation. Cells were then stimulated with 300 μL cGAMP permeabilization buffer containing 1 μg/mL cGAMP for 10 minutes, washed with 3 mL of warm medium, and the medium was replaced. 3 wells per condition were harvested 2 hours post stimulation, washed with PBS and lysed with 550 μL of RIPA buffer for 10 minutes on ice. Lysates were cleared at 16000 g for 10 minutes at 4° C. 10% of the lysate was saved as input. The remaining lysates were incubated with 150 μL Pierce Anti-[…] Magnetic beads (Thermo Fisher) O/N at 4° C. with constant rotation. Beads were washed 3 times with a buffer containing 10 mM Tris-HCl pH7.5 (Thermo Fisher), 2 mM EDTA (Thermo Fisher), 1% Nonidet-P40 Substitute (Roche) and 50 mM NaCl (Thermo Fisher), and 2 times with RIPA buffer. Proteins were eluted by adding 150 μL of non-reducing Laemmli (Boston bioproducts) containing 20 mM DTT (Thermo Fisher) and boiled for 20 minutes. Input was diluted with 2× sample buffer (Sigma).
(§1) MLN7243 was added again after medium replacement. Cells were stimulated for the indicated times.

In test [2] the test system is BJ1 fibroblasts. Nature of the test: Immunoblot of STING signaling in BJ1 fibroblasts stimulated with cGAMP. Particulars: cGAMP 2 hours, 0.5 μM MLN7243, FIG. 5D. As to the method:
as §1
Samples for pull-downs or immunoprecipitations were treated as described in the corresponding paragraphs. For experiments involving seeding of cells in 6 well plates or 24 well plates (293 Ts and hTert-BJ1), one well per condition was harvested, lysed in RIPA buffer (Boston Bioproducts) containing complete, Mini, EDTA-free Protease Inhibitor Cocktail (Millipore Sigma) and PhosSTOP (Millipore Sigma) for 10 minutes on ice. Lysates were cleared by centrifugation at 16000 g for 10 minutes at 4° C. and Laemmli 6×, Sample buffer, SDS, and reducing agents (Boston Bioproducts) were added prior to loading. Samples were run on NuPAGE 4 to 12%, Bis-Tris Gels (Thermo Fisher) and transferred on nitrocellulose membrane with an iBlot2 (Thermo Fisher). Membranes were blocked in 5% non-fat milk in TBS Tween. Antibodies against phospho-proteins were incubated in 5% BSA TBS tween. ECL signal was recorded on a ChemiDoc Biorad Imager. Data was analyzed with ImageLab (Biorad).

For test [3], the system named is 293T stably expressing STING-HA. Nature of the test: Immunofluorescence of HGS, p62, CD63, LC3B and STING in 293T STING-HA after cGAMP. Particulars: 293T STING-HA; cGAMP 2 hours; MLN7243; FIGS. 5E-5F. As to the method:
293T STING-TurboID were seeded directly on coverslips. 293T STING-HA were seeded on Fibronectin bovine plasma (Sigma-stock: 100×) coated coverslips. Cells were seeded the day before stimulation at 0.1 million cells/well density in 24 well plates. Cells were stimulated with cGAMP permeabilization buffer containing 1 μg/mL cGAMP for 10 minutes, washed with warm medium, and incubated for the indicated times. hTert-BJ1 mScarlet or mScarlet-UBAP1DN were seeded Fibronectin bovine plasma coated coverslips at 0.05 million cells/well density in a 24 well plate and fixed 6 hours post seeding. Cells were then fixed with 2% Paraformaldehyde (Electron Microscopy Sciences) in PHEM buffer (Electron Microscopy Sciences) for 30 minutes at 37° C., washed three times with PBS and quenched with freshly prepared 0.1M Glycine for 10 minutes. Coverslips were then permeabilized and blocked with 10% goat serum (Thermo Fisher) in PBS, 0.5% BSA (Seracare), 0.05% Saponin from Quillaja bark (Sigma) for 30 minutes. Coverslips were then stained with primary antibodies for 1-2 hours at room temperature in PBS, 0.5% BSA (Seracare), 0.05% Saponin from Quillaja bark (Sigma) with 10% goat serum, washed 5 times, and then stained with secondary antibodies in PBS, 0.5% BSA (Seracare), 0.05% Saponin from Quillaja bark (Sigma) for 1-2 hours. […] Images were analyzed in FiJi. […]

The structures appear in SMILES notation.

The values that follow come from US20240271138A1, “METHODS AND COMPOSITIONS FOR MODULATING STING SIGNALING AND INNATE IMMUNE RESPONSES” (The Broad Institute, Inc., priority 2021, published 2024).

In the case of `NS(=O)(=O)OC[C@H]1C[C@@H](Nc2ccnc3cc(-c4cccc(SC(F)(F)F)c4)nn23)[C@H](O)[C@@H]1O` [MLN7243], in test [1], the STING ubiquitination entry is “blocked STING ubiquitination”. Also, in test [2], the STING degradation result is “abrogated STING degradation”, the “lipidated LC3B” value is reported as “induced accumulation of lipidated LC3B” and the phospho-STING signaling entry is recorded as “increased phospho-STING signaling”. Also, in test [3], the “HGS co-localization with p62” value is “failed to co-localize with p62” and the “HGS foci co-localizing with STING” value is reported as “completely lost”.
